Laboratory results published in the supplement of paper PMC10307832.

Experiments:
Assay in all cases: relative viability (nuclei count vs DMSO), 5 days (fraction); higher = more cells survive
Ponatinib + Bortezomib = compound: Cc1ccc(C(=O)Nc2ccc(CN3CCN(C)CC3)c(C(F)(F)F)c2)cc1C#Cc1cnc2cccnn12 [Ponatinib] + CC(C)C[C@H](NC(=O)[C@H](Cc1ccccc1)NC(=O)c1cnccn1)B(O)O [Bortezomib] (partner 0.002 µM)
In short: (§1)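 Lung cancer cell lines were pin-tool dosed in 1536-well plates on the day after seeding, with either a lone drug or a fixed anchor-drug dose plus five library-drug doses (not always all listed) in √10 steps. Nuclei were counted on 4× images after 5 days. Relative viability is the ratio of treated-well to vehicle-well nuclei counts, with each value a median of duplicate plates.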

Ponatinib + Lapatinib = compound: Cc1ccc(C(=O)Nc2ccc(CN3CCN(C)CC3)c(C(F)(F)F)c2)cc1C#Cc1cnc2cccnn12 [Ponatinib] + CS(=O)(=O)CCNCc1ccc(-c2ccc3ncnc(Nc4ccc(OCc5cccc(F)c5)c(Cl)c4)c3c2)o1 [Lapatinib] (partner 2 µM)
In short: as §1

Ponatinib + Linsitinib = compound: Cc1ccc(C(=O)Nc2ccc(CN3CCN(C)CC3)c(C(F)(F)F)c2)cc1C#Cc1cnc2cccnn12 [Ponatinib] + C[C@]1(O)C[C@@H](c2nc(-c3ccc4ccc(-c5ccccc5)nc4c3)c3c(N)nccn32)C1 [Linsitinib] (partner 1 µM)
In short: as §1

Ponatinib + Tozasertib = compound: Cc1ccc(C(=O)Nc2ccc(CN3CCN(C)CC3)c(C(F)(F)F)c2)cc1C#Cc1cnc2cccnn12 [Ponatinib] + Cc1cc(Nc2cc(N3CCN(C)CC3)nc(Sc3ccc(NC(=O)C4CC4)cc3)n2)n[nH]1 [Tozasertib] (partner 0.1 µM)
In short: as §1

Ponatinib + Olaparib = compound: Cc1ccc(C(=O)Nc2ccc(CN3CCN(C)CC3)c(C(F)(F)F)c2)cc1C#Cc1cnc2cccnn12 [Ponatinib] + O=C(c1cc(Cc2n[nH]c(=O)c3ccccc23)ccc1F)N1CCN(C(=O)C2CC2)CC1 [Olaparib] (partner 8 µM)
In short: as §1

Cell Line | relative viability (Ponatinib + Bortezomib; first compound 0.002 µM) | relative viability (Ponatinib + Bortezomib; first compound 0.006325 µM) | relative viability (Ponatinib + Bortezomib; first compound 0.06325 µM) | relative viability (Ponatinib + Bortezomib; first compound 0.2 µM) | relative viability (Ponatinib + Lapatinib; first compound 0.002 µM) | relative viability (Ponatinib + Lapatinib; first compound 0.006325 µM) | relative viability (Ponatinib + Lapatinib; first compound 0.06325 µM) | relative viability (Ponatinib + Lapatinib; first compound 0.2 µM) | relative viability (Ponatinib + Linsitinib; first compound 0.002 µM) | relative viability (Ponatinib + Linsitinib; first compound 0.006325 µM) | relative viability (Ponatinib + Linsitinib; first compound 0.06325 µM) | relative viability (Ponatinib + Linsitinib; first compound 0.2 µM) | relative viability (Ponatinib + Tozasertib; first compound 0.002 µM) | relative viability (Ponatinib + Tozasertib; first compound 0.006325 µM) | relative viability (Ponatinib + Tozasertib; first compound 0.06325 µM) | relative viability (Ponatinib + Tozasertib; first compound 0.2 µM) | relative viability (Ponatinib + Olaparib; first compound 0.002 µM) | relative viability (Ponatinib + Olaparib; first compound 0.006325 µM) | relative viability (Ponatinib + Olaparib; first compound 0.06325 µM) | relative viability (Ponatinib + Olaparib; first compound 0.2 µM)
SK-LU-1 | 1.01 | 1.01 | 0.949 | 0.757 | 0.636 | 0.858 | 0.864 | 0.741 | 0.943 | 1.19 | 1.18 | 0.997 | 0.349 | 0.419 | 0.321 | 0.218 | 0.36 | 0.491 | 0.535 | 0.388
NCI-H1650 | 0.216 | 0.193 | 0.227 | 0.222 | 0.735 | 0.811 | 0.636 | 0.62 | – | – | – | – | 0.323 | 0.411 | 0.348 | 0.304 | 0.919 | 0.884 | 0.916 | 0.751
BEN | 0.643 | 0.843 | 0.85 | 0.672 | 0.503 | 0.509 | 0.721 | 0.628 | 0.858 | 0.985 | 0.846 | 0.87 | 0.544 | 0.52 | 0.486 | 0.533 | 1.06 | 1.18 | 1.13 | 0.92
NCI-H358 | – | – | – | – | 0.468 | 0.431 | 0.393 | 0.378 | 0.847 | 0.771 | 0.758 | 0.522 | 0.0953 | 0.101 | 0.0969 | 0.165 | 0.565 | 0.609 | 0.648 | 0.49
NCI-H1299 | 1.05 | 1 | 1.06 | 0.993 | 0.956 | 0.968 | 0.979 | 0.934 | 0.915 | 0.948 | 0.971 | 0.951 | – | – | – | – | 0.981 | 0.955 | 0.938 | 0.876
EBC-1 | 0.543 | 0.585 | 0.65 | 0.534 | 0.2 | 0.233 | 0.225 | 0.227 | 0.857 | 0.983 | 0.985 | 0.927 | – | – | – | – | 0.625 | 0.756 | 0.77 | 0.644
NCI-H441 | 0.592 | 0.363 | 0.402 | 0.452 | – | – | – | – | 0.48 | 0.576 | 0.478 | 0.5 | 0.602 | 0.529 | 0.588 | 0.488 | 0.437 | 0.477 | 0.578 | 0.438
NCI-H1648 | – | – | – | – | – | – | – | – | – | – | – | – | 0.464 | 0.361 | 0.577 | 0.283 | 0.49 | 0.897 | 0.572 | 0.51
NCI-H1792 | 0.918 | 0.942 | 1.14 | 0.854 | 0.854 | 0.85 | 0.92 | 0.847 | 0.525 | 0.591 | 0.572 | 0.521 | – | – | – | – | 0.44 | 0.587 | 0.489 | 0.313
ChaGo-K-1 | 0.786 | 1.01 | 1.14 | 0.968 | – | – | – | – | – | – | – | – | 0.234 | 0.213 | 0.177 | 0.209 | 0.438 | 0.486 | 0.41 | 0.436
LK-2 | – | – | – | – | 0.82 | 0.861 | 0.696 | 0.54 | 0.599 | 0.623 | 0.592 | 0.351 | – | 0.174 | 0.188 | 0.209 | 0.584 | 0.759 | 0.661 | 0.435
NCI-H2170 | – | – | – | – | 0.281 | 0.295 | 0.289 | 0.298 | – | – | – | – | 0.755 | 0.674 | 0.651 | 0.665 | 0.583 | 0.599 | 0.631 | 0.639
NCI-H1944 | – | – | – | – | 0.775 | 0.807 | 0.915 | 0.849 | 1.14 | 1.29 | 1.41 | 1.22 | 0.24 | 0.246 | 0.247 | 0.255 | 0.378 | 0.455 | 0.427 | 0.441
A549 | – | – | – | – | 0.946 | 1.03 | 1.05 | 0.88 | 0.612 | 0.632 | 0.688 | 0.591 | – | – | – | – | 0.299 | 0.384 | 0.394 | 0.384
SK-MES-1 | – | – | – | – | 0.472 | 0.531 | 0.749 | 0.59 | 0.99 | 1.12 | 1.12 | 1.07 | 0.828 | 0.909 | 0.964 | 0.842 | 0.765 | 0.819 | 0.857 | 0.769
NCI-H1563 | 0.773 | 0.847 | 0.836 | 0.571 | 0.86 | 0.856 | 0.885 | 0.727 | 1.22 | 1.26 | 1.21 | 1.1 | – | – | – | – | – | – | – | –
NCI-H1793 | – | – | – | – | 0.645 | 0.786 | 0.645 | 0.459 | 0.815 | 0.924 | 0.964 | 0.762 | 0.357 | 0.388 | 0.29 | 0.204 | 0.882 | 0.986 | 1.01 | 0.756
NCI-H522 | – | – | – | – | – | – | – | – | – | – | – | – | 0.51 | 0.543 | 0.476 | 0.455 | 0.731 | 0.708 | 0.632 | 0.507
IA-LM | 0.695 | 0.623 | 0.785 | 0.79 | 0.897 | 0.67 | 0.77 | 0.721 | 0.538 | 0.512 | 0.529 | 0.535 | – | – | – | – | 0.705 | 0.835 | 0.785 | 0.646
NCI-H1703 | 0.296 | 0.261 | 0.26 | 0.143 | 0.989 | 0.787 | 0.339 | 0.313 | 0.641 | 0.827 | 0.364 | 0.25 | – | – | – | – | 0.37 | 0.449 | 0.262 | 0.207
LCLC-103H | 1.05 | 1.12 | 1.23 | 1.25 | – | – | – | – | 0.952 | 1.15 | 1.15 | 0.889 | 0.527 | 0.534 | 0.522 | 0.404 | 0.754 | 0.743 | 0.838 | 0.694
SW 900 | – | – | – | – | – | – | – | – | – | – | – | – | 0.58 | 0.51 | 0.337 | 0.38 | 0.958 | 0.867 | 0.95 | 0.725
